The target of this test is T1, GSK3A (GSK3 alpha) (Homo sapiens, UniProt P49840).
T1 construct: purchased Thermo Fisher Scientific (Life Technologies) SelectScreen
Put plainly: SelectScreen Z'LYTE. It counts as biochemical. The method in brief: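 SelectScreen broad panel; activity (Z'LYTE, Adapta) plus binding formats. ATP: Km app for CSF1R Z'LYTE; 10 for CAMK1 Adapta. Readout = % per kinase.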

T1 sequence (P49840 whole entry): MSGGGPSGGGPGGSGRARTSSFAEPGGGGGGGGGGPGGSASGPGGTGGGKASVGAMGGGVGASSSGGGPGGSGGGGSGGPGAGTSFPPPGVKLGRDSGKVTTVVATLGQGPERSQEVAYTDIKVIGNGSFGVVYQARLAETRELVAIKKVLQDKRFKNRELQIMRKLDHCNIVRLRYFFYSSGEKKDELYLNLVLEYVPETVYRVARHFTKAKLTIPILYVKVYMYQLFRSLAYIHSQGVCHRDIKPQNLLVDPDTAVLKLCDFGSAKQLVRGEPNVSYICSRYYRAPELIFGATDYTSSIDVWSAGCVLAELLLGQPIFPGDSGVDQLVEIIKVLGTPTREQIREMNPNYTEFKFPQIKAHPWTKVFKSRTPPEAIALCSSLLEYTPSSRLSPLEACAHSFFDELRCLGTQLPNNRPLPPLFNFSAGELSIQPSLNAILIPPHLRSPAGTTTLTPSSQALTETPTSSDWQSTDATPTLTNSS

The term inhibition denotes the relative decrease from the control value, in per cent. `CN(C(=O)CN1CCOCC1)c1ccc2sc3c(-c4cccc5c(=O)cc(N6CC7CCC(C6)O7)oc45)cccc3c2c1` [NU5455]: the inhibition at 1 µM was -5.5%.

For the origin of these results see publication PMC6934184, “Selective DNA-PKcs inhibition extends the therapeutic index of localized radiotherapy and chemotherapy” (The Journal of Clinical Investigation, 2019).
